Read-outs that look alike come from different tables or passages of the source.
Experiments:
mouse ESCs = settings: cited from earlier work
IMR90-4 EBs = experiment: EB volume after exposure, IMR90-4; format: cell-based, human; settings: for concentration with effect on EB volume: IMR90-4, last day of assay
Protocol: (§1) The average of 32 EBs per condition was analyzed. […] EB size was analysed using a one-way ANOVA without matching and multiple comparisons with Dunnett’s correction.

[1] = tested on: IMR90-4 hiPSC embryoid bodies differentiating into cardiomyocytes; experiment: PluriBeat assay, beat score of EBs, IMR90-4; settings: for effect on beat score: up to maximum concentration tested
Protocol: (§2) Cardiac differentiation was performed as published (Fischer et al. [2018]) with slight modifications. Briefly, hiPSC were harvested from culture dishes with good colony morphology (day 5–6 after split) by removing medium and adding Gibco™ TrypLE™ Select (Thermo Fisher Scientific) for 1–2 min. As soon as single cells appeared at the borders of the colonies, TrypLE was removed by suction and the cells harvested as single cells in mTeSR-ROCK (mTeSR1 with 10 µM Y27632 dihydrochloride). Cells were counted and 5 × 10^4 cells/ml were seeded at 100 µl per well into a 96-well Polystyrene Conical Bottom MicroWell™ Plate (249,952, Thermo Fisher Scientific). The plates were centrifuged at 500g for 5 min at room temperature. After 20 h of incubation, EBs had formed (one EB per well) and cardiac differentiation was induced by exchanging 80 µl medium to D0 medium. All medium recipes are included in supplementary Table 1. After 24 ± 2 h, 80 µl medium was exchanged to TS medium. After 24 ± 2 h, 80 µl medium were exchanged to Wnt medium. After 24 ± 2 h, 80 µl medium was exchanged with TS medium. Three days later (72 ± 2 h), 60 µl medium was exchanged with 80 µl fresh TS medium added per well. The following day beating of the cardiomyocyte containing EBs was scored.
(§3) Test compounds were added to the specific daily differentiation medium before medium exchange on the 96-well plates. Vehicle was kept constant across the plates at 0.1%. Thirty-two EBs were exposed to each concentration in each experiment. On the last day of the assay, the beat score was determined as follows: Each EB was observed until contraction was seen, though for a maximum of 10 s. If no movement was seen, the beat score 0 was given. If the entire area of the sphere contracted, a beat score of 2 was given. Everything in between was given a score of 1.
(§4) The beat score for each condition was determined as the average beat score of the 32 EBs. All experiments were performed in biological triplicates if not stated otherwise. For gene expression analysis and compound testing, data from 32 EBs (= 32 wells each containing one EB) were analyzed for a given concentration or time point.
(§5) IC25 values were defined as absolute IC25 values giving the concentration that inhibits the beat score by 25%. […] Calculations were based on the beat score of > 90 EBs from three independent experiments per cell line.
(§6) The following analysis was performed in the statistical program R-studio: To analyze the impact of the test compounds on the beat score, we performed an ordinal logistic regression using the polr package in R with beat score and concentration as factors on n ≥ 90 EBs from three biological replicates. The LOEC was defined as the lowest observable effect concentration of test compound causing an effect with a p value < 0.05.

[2] = tested on: BIONi010-C hiPSC embryoid bodies differentiating into cardiomyocytes; experiment: PluriBeat assay, beat score of EBs, BIONi010-C
Protocol: as §2, §3, §4, §5, §6

BIONi010-C EBs = experiment: EB volume after exposure, BIONi010-C; format: cell-based, human
Protocol: as §1

[3] = tested on: EBs made from the three cell lines BIONi010-C, IMR90-1, and IMR90-4; experiment: PluriBeat assay, statements without a named cell line
Protocol: as §3
For analysis of the EB size, the EBs were imaged with a light microscope after assessing the beat score. The plates were left at room temperature to decrease the beat rate before imaging, thereby decreasing the risk of false small outliers due to contractions. The images were further analyzed with ImageJ, where the diameter of the individual EBs was measured manually. From this, the volume of each EB was calculated and the average of the controls on each plate set to 100% to calculate the volume (%) for the exposed EBs. The average of 32 EBs per condition was analyzed.

IMR90-1 EBs = experiment: EB volume after exposure, IMR90-1; format: cell-based, human; settings: for concentration with effect on EB volume: IMR90-1, last day of assay
Protocol: as §1

[4] = tested on: BIONi010-C hiPSC grown in monolayer; experiment: Cytotoxicity, CellTiter-Glo 2.0 ATP-based cell viability assay; parameters: species or system human; settings: for concentration showing cytotoxicity: human, 48 h
Protocol: Before initiating tests on cardiomyocyte differentiation for test chemicals, cell viability was determined to ascertain that any further testing was done at non-cytotoxic concentrations. On the day of the experiment, 50 µl/well hESC-Qualified Matrigel (354,277, Corning) was added to flat-bottom 96-well plates (Corning) and incubated at 37 °C and 95% humidity until use. BIONi010-C hiPSC were harvested from a […] by Gibco™ TrypLE™ Select (Thermo Fisher Scientific) and a single-cell suspension was prepared in mTeSR™1 serum-free medium (STEMCELL Technologies). Matrigel was removed from plates and a final concentration of 1 × 10^4 cells/well was added. After 24 h, mTESR1 medium was exchanged for fresh medium. Cell were exposed to the test chemicals after another 24 h and for 48 h in total with a vehicle kept constant across the plates at 0.1%. […] Assay reagent (100 µl/well) was added, plates were left on a shaker table for 2 min and successively for 10 min at room temperature. Lysates were transferred to white plates and luminescence was measured (EnSpire, Perkin Elmer).

[5] = tested on: IMR90-1 hiPSC embryoid bodies differentiating into cardiomyocytes; experiment: PluriBeat assay, beat score of EBs, IMR90-1
Protocol: as §2, §3, §4, §5, §6

[6] = cited from earlier work
hESCs = tested on: hESCs; parameters: method as in Kameoka et al. [2014]; settings: hESC monolayer, 3 days; ref Kameoka et al. [2014]; cited from earlier work
hiPSC = settings: cited from earlier work
rat embryos = tested on: rat embryos; parameters: method as in Rettie et al. [1986]; settings: ex vivo rat embryos, gestation day 10; ref Rettie et al. [1986]; cited from earlier work
[7] = tested on: in vitro assays for developmental toxicity; settings: previous in vitro developmental toxicity studies, cited from earlier work
[8] = IMR90-4, beat score on last day of assay, lowest concentration with p < 0.05
[9] = human, 8 days (beat score read on the last day of the assay)

Fc1ccc([C@]2(Cn3cncn3)O[C@H]2c2ccccc2Cl)cc1 (racemic) [Epoxiconazole, epoxiconazole]
embryotoxicity in the mEST (mouse ESCs): weakly embryotoxic
IC50 (mouse ESCs; mEST based on mouse ESCs, ref Dreisig et al. [2013]): 34 µM
effect on EB volume (IMR90-4 EBs): significantly smaller spheres
LOEC [1, 8]: 1.3 µM
concentration at which EBs stopped beating ([1]; human, 7 days): 2.5 µM
LOEC ([2]; BIONi010-C, beat score on last day of assay, lowest concentration with p < 0.05): 5 µM
effect on EB volume (BIONi010-C EBs): significantly smaller spheres
lowest concentration decreasing the beating (LOEC) ([3]; beat score, cell line not stated): 1.3 µM
proportion of beating cardiac EBs [3, 9]: ~0%
effect on EB volume (IMR90-1 EBs): non-significant trend
concentration showing cytotoxicity [4]: ≥ 50 µM
LOEC ([5]; IMR90-1, beat score on last day of assay, lowest concentration with p < 0.05): 1.3 µM
concentration at which EBs stopped beating ([5]; human, 7 days): 2.5 µM

O=C1CCC(N2C(=O)c3ccccc3C2=O)C(=O)N1 (stereo not shown) [Thalidomide, thalidomide]
concentration with effect on EB volume (IMR90-4 EBs): ≥ 18 µM
LOEC [1, 8]: no LOEC could be determined
effect on beat score ([1]; IMR90-4): non-significant trend
IC25 (absolute inhibition concentration of 25%) with 95% confidence intervals ([1]; human, 7 days): > 36 µM
LOEC ([1]; human, 7 days): > 36 µM
clinical plasma concentrations for therapeutic use ([6]; human, ref Chung et al. [2004], Kodama et al. [2009]): 1 to 6 µM
internal exposure ([6]; regular dose for pregnant women of 200 mg, ref Teo et al. [2004]): 4.7 µM
IC50 (hESCs): 0.5 µM
LOEC ([2]; human, 7 days): 2.3 µM
concentration with significant decrease in EB volume (BIONi010-C EBs; BIONi010-C, last day of assay): ≥ 2.3 µM
IC50 (hiPSC; original EST protocol, ref Aikawa et al. [2014]): 450 µM
IC50 (hiPSC; ref Aikawa [2020]): 5.5 µM
decrease of EB volume ([3]; human, 7 days, 2.3 µM): ~60%
lowest concentration decreasing the beating (LOEC) [3, 9]: 2.3 µM
concentration with effect on EB volume (IMR90-1 EBs): ≥ 2.3 µM
effect on viability ([4]; BIONi010-C monolayer, 48 h exposure, 25, 50, 100 and 200 µM): did not reduce viability in any of the concentrations tested
concentration showing cytotoxicity [4]: > 200 µM
LOEC ([5]; human, 7 days): 2.3 µM

CCCC(CCC)C(=O)O [Valproic acid, valproic acid]
concentration with effect on EB volume (IMR90-4 EBs): 300 µM
effect on beat score ([1]; IMR90-4): did not lead to a significant decrease in beat score
IC25 (absolute inhibition concentration of 25%) with 95% confidence intervals ([1]; human, 7 days): > 300 µM
LOEC ([1]; human, 7 days): > 300 µM
concentration with toxic effects (rat embryos): 800 µM
therapeutic serum levels ([6]; human, ref Dasgupta [2016]): around 700 µM
effect on beat score ([2]; BIONi010-C, up to maximum concentration tested): did not lead to a significant decrease in beat score
IC25 (absolute inhibition concentration of 25%) with 95% confidence intervals ([2]; human, 7 days): > 300 µM
LOEC ([2]; human, 7 days): > 300 µM
effect on EB volume (BIONi010-C EBs; BIONi010-C, last day of assay): did not lead to apparent effects
concentration with effect on EB volume (IMR90-1 EBs): 200 µM
reduction of viability ([4]; BIONi010-C monolayer, 48 h exposure, 400 µM): more than 20%
concentration showing cytotoxicity [4]: above 300 µM
IC50 ([7]; ref Aikawa et al. [2014], Shinde et al. [2016]): 868 to 1000 µM
IC50 ([7]; ref Uibel et al. [2010], Palmer et al. [2013], Kameoka et al. [2014], Aikawa [2020]): 3 to 205 µM
effect on beat score ([5]; IMR90-1, up to maximum concentration tested): did not lead to a significant decrease in beat score
IC25 (absolute inhibition concentration of 25%) with 95% confidence intervals ([5]; human, 7 days): > 300 µM
LOEC ([5]; human, 7 days): > 300 µM

Reference: publication PMC7603451, “A novel human pluripotent stem cell-based assay to predict developmental toxicity” (Archives of Toxicology, 2020)
